# Data published in ChEMBL document CHEMBL1681773, “Toxic polyketides produced by Fusarium sp., an endophytic fungus isolated from Melia azedarach” (Bioorg Med Chem Lett, 2011).
# Test: Toxicity in brine shrimps larvae assessed as mortality at 10 ug/ml after 24 hrs
# Type: organism-based
# Conditions: artemia, brine shrimp larvae; read-out: Activity
row,Structure (SMILES),"mortality at 24 h, 10 ug/ml"
1,C[C@H]1C/C=C/[C@@H](O)[C@@H](O)CC/C=C/c2cc(O)cc(O)c2C(=O)O1 [AIGIALOMYCIN D],76.7%
2,C[C@H](O)C/C=C/CCCCc1cc2cc(O)cc(O)c2c(=O)o1 [FUSARIUMIN],78.2%
3,C[C@@H]1C[C@@H](O)/C=C\[C@H](O)CCC(=O)Cc2c(Cl)c(O)cc(O)c2C(=O)O1 [POCHONIN N],82.8%
